Target: T1, Aβ42 (amyloid-β protein) (Homo sapiens, UniProt P05067)
T1 construct: gene APP; synthetic Aβ42 peptide, low-molecular-weight (LMW, monomeric) Aβ42
Assay: ThT fluorescence aggregation assay with purified LMW Aβ[…] (no seeds); electron microscopy
Format: biochemical

T1 sequence (P05067 672-713 limits assumed): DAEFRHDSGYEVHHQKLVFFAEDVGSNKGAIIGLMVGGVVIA

EC50: 6.37 mM
Structure (SMILES): COc1cc(CCC(=O)O)ccc1O [HMPA, 3-(4-Hydroxy-3-methoxyphenyl) propionic acid]
